In publication PMC5337940, “Sansanmycin natural product analogues as potent and selective anti-mycobacterials that inhibit lipid I biosynthesis” (Nature Communications, 2017):
Converted amounts (≈) assume the structure as drawn. Like-named read-outs stand apart in the source and are kept apart here.

How the values were obtained:
HEK293 cells = assay: Cytotoxicity counter-screen, resazurin reduction microplate assay; format: cell-based; settings: Homo sapiens, tested up to 200 μM, read-out: MIC50 (HEK293)
Mtb H37Rv = assay: Resazurin reduction microplate assay, growth inhibition of Mtb H37Rv; format: cell-based, Mycobacterium tuberculosis
Mtb MurX = Mtb MurX (Mycobacterium tuberculosis, UniProt P9WMW7); assay: Radiochemical (TLC) MurX-MurG coupled inhibition assay in Mtb mc2 6230 membranes; format: biochemical; settings: 200 nM inhibitor, decrease in lipid II formation
Mtb MurX, sequence (P9WMW7 whole entry): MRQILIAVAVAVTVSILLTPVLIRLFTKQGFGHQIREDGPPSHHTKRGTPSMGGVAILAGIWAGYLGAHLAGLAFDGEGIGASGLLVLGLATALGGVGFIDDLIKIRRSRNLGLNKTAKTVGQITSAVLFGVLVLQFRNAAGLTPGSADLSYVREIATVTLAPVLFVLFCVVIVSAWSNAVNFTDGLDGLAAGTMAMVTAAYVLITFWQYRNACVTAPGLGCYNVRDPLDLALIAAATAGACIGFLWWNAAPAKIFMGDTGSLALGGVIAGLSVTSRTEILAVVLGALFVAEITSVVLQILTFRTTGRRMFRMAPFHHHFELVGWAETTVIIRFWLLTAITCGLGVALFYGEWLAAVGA

[1] = Mycobacterium tuberculosis, H37RV, average of two independent experiments, each in triplicate, read-out: MIC50 Mtb H37Rv
[2] = average of two independent experiments, each in triplicate

CSCC[C@H](NC(=O)N[C@@H](Cc1c[nH]c2ccccc12)C(=O)O)C(=O)N[C@H](C(=O)NC[C@H]1C[C@@H](O)[C@H](n2ccc(=O)[nH]c2=O)O1)[C@H](C)N(C)C(=O)[C@@H](N)c1cccc(O)c1 [Compound 4, Dihydrosansanmycin A]
CC50 (HEK293 cells): > 200 µM | MIC50 (Mtb H37Rv; [1]): 0.5 ± 0.05 µM (≈ 0.426 µg/mL) | inhibition at 0.2 µM (Mtb MurX): 68%

C[C@@H]([C@H](NC(=O)[C@H](CCCCN)NC(=O)N[C@@H](Cc1c[nH]c2ccccc12)C(=O)O)C(=O)NC[C@H]1C[C@@H](O)[C@H](n2ccc(=O)[nH]c2=O)O1)N(C)C(=O)CN [Compound 28]
CC50 (HEK293 cells): > 200 µM | MIC50 (Mtb H37Rv; Mycobacterium tuberculosis, H37RV, Mtb H37Rv, read-out: MIC50 against Mtb): 0.7 µM (≈ 0.53 µg/mL) | MIC50 (Mtb H37Rv; [1]): 0.7 ± 0.1 µM (≈ 0.53 µg/mL) | inhibition at 0.2 µM (Mtb MurX): 47%

CC(C)C[C@H](NC(=O)N[C@@H](Cc1c[nH]c2ccccc12)C(=O)O)C(=O)N[C@H](C(=O)NC[C@H]1C[C@@H](O)[C@H](n2ccc(=O)[nH]c2=O)O1)[C@H](C)N(C)C(=O)CN [Compound 12]
CC50 (HEK293 cells): > 200 µM | MIC50 (Mtb H37Rv; [1]): 0.63 ± 0.17 µM (≈ 0.467 µg/mL) | MIC50 (Mtb H37Rv; average of two independent experiments, each in triplicate, read-out: MIC50 Mtb H37Rv): 0.63 µM (≈ 0.467 µg/mL) | inhibition at 0.2 µM (Mtb MurX): 9%

CC(C)[C@H](NC(=O)N[C@@H](Cc1c[nH]c2ccccc12)C(=O)O)C(=O)N[C@H](C(=O)NC[C@H]1C[C@@H](O)[C@H](n2ccc(=O)[nH]c2=O)O1)[C@H](C)N(C)C(=O)CN [Compound 22]
CC50 (HEK293 cells): > 200 µM | MIC50 (Mtb H37Rv; [1]): 0.88 ± 0.12 µM (≈ 0.64 µg/mL) | inhibition at 0.2 µM (Mtb MurX): 26%

C[C@@H]([C@H](NC(=O)[C@H](Cc1ccc(C(F)(F)F)cc1)NC(=O)N[C@@H](Cc1c[nH]c2ccccc12)C(=O)O)C(=O)NC[C@H]1C[C@@H](O)[C@H](n2ccc(=O)[nH]c2=O)O1)N(C)C(=O)CN [Compound 30]
CC50 (HEK293 cells): > 200 µM | MIC50 (Mtb H37Rv; [1]): 0.2 ± 0.06 µM (≈ 0.169 µg/mL) | inhibition at 0.2 µM (Mtb MurX): 100%

C[C@@H]([C@H](NC(=O)[C@H](CCc1ccccc1)NC(=O)N[C@@H](Cc1c[nH]c2ccccc12)C(=O)O)C(=O)NC[C@H]1C[C@@H](O)[C@H](n2ccc(=O)[nH]c2=O)O1)N(C)C(=O)CN [Compound 35]
CC50 (HEK293 cells): > 200 µM | MIC50 (Mtb H37Rv; [1]): 1.08 ± 0.1 µM (≈ 0.853 µg/mL)

C[C@@H]([C@H](NC(=O)[C@H](CC[S+](C)[O-])NC(=O)N[C@@H](Cc1c[nH]c2ccccc12)C(=O)O)C(=O)NC[C@H]1C[C@@H](O)[C@H](n2ccc(=O)[nH]c2=O)O1)N(C)C(=O)[C@@H](N)Cc1cccc(O)c1 (some centres unmarked) [Compound 6, Dihydrosansanmycin C]
CC50 (HEK293 cells): > 200 µM | MIC50 (Mtb H37Rv; [1]): 18.5 ± 0.7 µM (≈ 16.3 µg/mL) | inhibition at 0.2 µM (Mtb MurX): 68%

C[C@H](O)[C@H](NC(=O)N[C@@H](Cc1c[nH]c2ccccc12)C(=O)O)C(=O)N[C@H](C(=O)NC[C@H]1C[C@@H](O)[C@H](n2ccc(=O)[nH]c2=O)O1)[C@H](C)N(C)C(=O)CN [Compound 26]
CC50 (HEK293 cells): > 200 µM | MIC50 (Mtb H37Rv; [1]): 2.8 µM (≈ 2.04 µg/mL) | MIC50 Mtb H37Rv (Mtb H37Rv; [2]): 2.80 ± 0.70 µM (≈ 2.04 µg/mL) | inhibition at 0.2 µM (Mtb MurX): 40%

CC(C)C[C@H](NC(=O)N[C@@H](Cc1c[nH]c2ccccc12)C(=O)O)C(=O)N[C@H](C(=O)NC[C@H]1C[C@@H](O)[C@H](n2ccc(=O)[nH]c2=O)O1)[C@H](C)N(C)C(=O)[C@@H](N)Cc1cccc(O)c1 [Compound 5, Dihydrosansanmycin B]
CC50 (HEK293 cells): > 200 µM | MIC50 (Mtb H37Rv; [1]): 0.3 ± 0.03 µM (≈ 0.254 µg/mL) | MIC50 Mtb H37Rv (Mtb H37Rv; [2]): 0.30 ± 0.07 µM (≈ 0.254 µg/mL) | inhibition at 0.2 µM (Mtb MurX): > 51%

C[C@@H]([C@H](NC(=O)[C@H](CC(=O)O)NC(=O)N[C@@H](Cc1c[nH]c2ccccc12)C(=O)O)C(=O)NC[C@H]1C[C@@H](O)[C@H](n2ccc(=O)[nH]c2=O)O1)N(C)C(=O)CN [Compound 27]
CC50 (HEK293 cells): > 200 µM | MIC50 (Mtb H37Rv; Mycobacterium tuberculosis, H37RV, read-out: MIC50 Mtb H37Rv): > 6.25 µM | inhibition at 0.2 µM (Mtb MurX): 34%

C[C@@H]([C@H](NC(=O)[C@H](Cc1ccc(O)cc1)NC(=O)N[C@@H](Cc1c[nH]c2ccccc12)C(=O)O)C(=O)NC[C@H]1C[C@@H](O)[C@H](n2ccc(=O)[nH]c2=O)O1)N(C)C(=O)CN [Compound 31]
CC50 (HEK293 cells): > 200 µM | MIC50 (Mtb H37Rv; [1]): 0.44 to 0.98 µM (≈ 0.348 to 0.776 µg/mL) | MIC50 Mtb H37Rv (Mtb H37Rv; [2]): 0.52 ± 0.02 µM (≈ 0.412 µg/mL) | inhibition at 0.2 µM (Mtb MurX): 40%

CC(C)C[C@H](NC(=O)N[C@@H](Cc1c[nH]c2ccccc12)C(=O)O)C(=O)N[C@H](C(=O)NC[C@H]1C[C@@H](O)[C@H](n2ccc(=O)[nH]c2=O)O1)[C@H](C)N(C)C(=O)[C@@H](N)CCCN [Compound 16]
CC50 (HEK293 cells): > 200 µM | MIC50 (Mtb H37Rv; [1]): 0.95 ± 0.07 µM (≈ 0.759 µg/mL) | MIC50 Mtb H37Rv (Mtb H37Rv; [2]): 0.95 to 1.35 µM | inhibition at 0.2 µM (Mtb MurX): 5%

CCCCC[C@H](NC(=O)N[C@@H](Cc1c[nH]c2ccccc12)C(=O)O)C(=O)N[C@H](C(=O)NC[C@H]1C[C@@H](O)[C@H](n2ccc(=O)[nH]c2=O)O1)[C@H](C)N(C)C(=O)CN [Compound 23]
CC50 (HEK293 cells): > 200 µM | MIC50 (Mtb H37Rv; [1]): 0.51 ± 0.12 µM (≈ 0.385 µg/mL) | inhibition at 0.2 µM (Mtb MurX): 59%

CC(C)C[C@H](NC(=O)N[C@@H](Cc1c[nH]c2ccccc12)C(=O)O)C(=O)N[C@H](C(=O)NC[C@H]1C[C@@H](O)[C@H](n2ccc(=O)[nH]c2=O)O1)[C@H](C)N(C)C(=O)[C@@H](N)Cc1ccccc1 [Compound 7]
CC50 (HEK293 cells): > 200 µM | MIC50 (Mtb H37Rv; [1]): 4.05 ± 0.63 µM (≈ 3.37 µg/mL) | inhibition at 0.2 µM (Mtb MurX): 27%

CC(C)C[C@H](NC(=O)N[C@@H](Cc1c[nH]c2ccccc12)C(=O)O)C(=O)N[C@H](C(=O)NC[C@H]1C[C@@H](O)[C@H](n2ccc(=O)[nH]c2=O)O1)[C@H](C)N(C)C(=O)[C@@H](N)CC1CCCCC1 [Compound 10]
CC50 (HEK293 cells): > 200 µM | MIC50 (Mtb H37Rv; [1]): 1 ± 0.3 µM (≈ 0.838 µg/mL) | MIC50 Mtb H37Rv (Mtb H37Rv; [2]): 0.95 to 1.35 µM | inhibition at 0.2 µM (Mtb MurX): 41%

C[C@@H]([C@H](NC(=O)[C@H](Cc1c[nH]c2ccccc12)NC(=O)N[C@@H](Cc1c[nH]c2ccccc12)C(=O)O)C(=O)NC[C@H]1C[C@@H](O)[C@H](n2ccc(=O)[nH]c2=O)O1)N(C)C(=O)CN [Compound 33]
CC50 (HEK293 cells): > 200 µM | MIC50 (Mtb H37Rv; [1]): 0.44 to 0.98 µM (≈ 0.359 to 0.799 µg/mL) | MIC50 Mtb H37Rv (Mtb H37Rv; [2]): 0.44 ± 0.06 µM (≈ 0.359 µg/mL) | inhibition at 0.2 µM (Mtb MurX): 52%

C[C@@H]([C@H](NC(=O)[C@H](Cc1ccccc1)NC(=O)N[C@@H](Cc1c[nH]c2ccccc12)C(=O)O)C(=O)NC[C@H]1C[C@@H](O)[C@H](n2ccc(=O)[nH]c2=O)O1)N(C)C(=O)CN [Compound 29]
CC50 (HEK293 cells): > 200 µM | MIC50 (Mtb H37Rv; [1]): 0.26 ± 0.15 µM (≈ 0.202 µg/mL) | inhibition at 0.2 µM (Mtb MurX): 60%

C[C@@H]([C@H](NC(=O)[C@@H](NC(=O)N[C@@H](Cc1c[nH]c2ccccc12)C(=O)O)c1ccccc1)C(=O)NC[C@H]1C[C@@H](O)[C@H](n2ccc(=O)[nH]c2=O)O1)N(C)C(=O)CN [Compound 34]
CC50 (HEK293 cells): > 200 µM | MIC50 (Mtb H37Rv; [1]): > 6.25 µM | inhibition at 0.2 µM (Mtb MurX): 51%

C[C@@H]([C@H](NC(=O)[C@@H](NC(=O)N[C@@H](Cc1c[nH]c2ccccc12)C(=O)O)C1CCCCC1)C(=O)NC[C@H]1C[C@@H](O)[C@H](n2ccc(=O)[nH]c2=O)O1)N(C)C(=O)CN [Compound 24]
CC50 (HEK293 cells): > 200 µM | MIC50 (Mtb H37Rv; [1]): 0.51 ± 0.1 µM (≈ 0.392 µg/mL) | inhibition at 0.2 µM (Mtb MurX): 41%

CC[C@@H](C)[C@H](NC(=O)N[C@@H](Cc1c[nH]c2ccccc12)C(=O)O)C(=O)N[C@H](C(=O)NC[C@H]1C[C@@H](O)[C@H](n2ccc(=O)[nH]c2=O)O1)[C@H](C)N(C)C(=O)CN [Compound 21]
CC50 (HEK293 cells): > 200 µM | MIC50 (Mtb H37Rv; [1]): 0.93 ± 0.11 µM (≈ 0.69 µg/mL) | inhibition at 0.2 µM (Mtb MurX): 46%

CO[C@H]1/C=C/O[C@@]2(C)Oc3c(C)c(O)c4c(O)c(c(/C=N/N5CCN(C)CC5)c(O)c4c3C2=O)NC(=O)/C(C)=C\C=C\[C@H](C)[C@H](O)[C@@H](C)[C@@H](O)[C@@H](C)[C@H](OC(C)=O)[C@@H]1C [RIF, Rifampicin, reference compound]
MIC50 (Mtb H37Rv; [1]): 0.006 ± 0.002 µM (≈ 0.00494 µg/mL)

C[C@@H]([C@H](NC(=O)[C@H](Cc1cccnc1)NC(=O)N[C@@H](Cc1c[nH]c2ccccc12)C(=O)O)C(=O)NC[C@H]1C[C@@H](O)[C@H](n2ccc(=O)[nH]c2=O)O1)N(C)C(=O)CN [Compound 32]
CC50 (HEK293 cells): > 200 µM | inhibition at 0.2 µM (Mtb MurX): 52%

NNC(=O)c1ccncc1 [INH, isoniazid, reference compound]
MIC50 (Mtb H37Rv; [1]): 0.025 ± 0.005 µM (≈ 0.00343 µg/mL)
